How the values were obtained:
Assay in all cases: relative viability (nuclei count vs DMSO), 5 days (fraction); higher = more cells survive
Etoposide + OSI-027 = compound: COc1cc([C@@H]2c3cc4c(cc3[C@@H](O[C@@H]3O[C@@H]5CO[C@@H](C)O[C@H]5[C@H](O)[C@H]3O)[C@H]3COC(=O)[C@H]23)OCO4)cc(OC)c1O [Etoposide] + COc1cccc2cc(-c3nc([C@H]4CC[C@H](C(=O)O)CC4)n4ncnc(N)c34)[nH]c12 [OSI-027] (partner 0.5 µM)
Summary of the method: (§1)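 Relative viability is defined as nuclei in treated wells over nuclei in vehicle wells. Duplicate plates were run and medians reported. Lung cancer cell lines in 1536-well plates were dosed by pin tool one day after seeding, with one drug or with a fixed anchor-drug dose plus five library-drug doses (not always all listed) in √10 steps, and nuclei were counted after 5 days.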

Etoposide + Linsitinib = compound: COc1cc([C@@H]2c3cc4c(cc3[C@@H](O[C@@H]3O[C@@H]5CO[C@@H](C)O[C@H]5[C@H](O)[C@H]3O)[C@H]3COC(=O)[C@H]23)OCO4)cc(OC)c1O [Etoposide] + C[C@]1(O)C[C@@H](c2nc(-c3ccc4ccc(-c5ccccc5)nc4c3)c3c(N)nccn32)C1 [Linsitinib] (partner 1 µM)
Summary of the method: as §1

Etoposide + Alpelisib = compound: COc1cc([C@@H]2c3cc4c(cc3[C@@H](O[C@@H]3O[C@@H]5CO[C@@H](C)O[C@H]5[C@H](O)[C@H]3O)[C@H]3COC(=O)[C@H]23)OCO4)cc(OC)c1O [Etoposide] + Cc1nc(NC(=O)N2CCC[C@H]2C(N)=O)sc1-c1ccnc(C(C)(C)C(F)(F)F)c1 [Alpelisib] (partner 2 µM)
Summary of the method: as §1

Etoposide + Vorinostat = compound: COc1cc([C@@H]2c3cc4c(cc3[C@@H](O[C@@H]3O[C@@H]5CO[C@@H](C)O[C@H]5[C@H](O)[C@H]3O)[C@H]3COC(=O)[C@H]23)OCO4)cc(OC)c1O [Etoposide] + O=C(CCCCCCC(=O)Nc1ccccc1)NO [Vorinostat] (partner 1 µM)
Summary of the method: as §1

Row | Cell Line | relative viability (Etoposide + OSI-027; first compound 0.01 µM) | relative viability (Etoposide + OSI-027; first compound 0.03162 µM) | relative viability (Etoposide + OSI-027; first compound 0.1 µM) | relative viability (Etoposide + OSI-027; first compound 0.3162 µM) | relative viability (Etoposide + OSI-027; first compound 1 µM) | relative viability (Etoposide + Linsitinib; first compound 0.01 µM) | relative viability (Etoposide + Linsitinib; first compound 0.03162 µM) | relative viability (Etoposide + Linsitinib; first compound 0.1 µM) | relative viability (Etoposide + Linsitinib; first compound 0.3162 µM) | relative viability (Etoposide + Linsitinib; first compound 1 µM) | relative viability (Etoposide + Alpelisib; first compound 0.01 µM) | relative viability (Etoposide + Alpelisib; first compound 0.03162 µM) | relative viability (Etoposide + Alpelisib; first compound 0.1 µM) | relative viability (Etoposide + Alpelisib; first compound 0.3162 µM) | relative viability (Etoposide + Alpelisib; first compound 1 µM) | relative viability (Etoposide + Vorinostat; first compound 0.01 µM) | relative viability (Etoposide + Vorinostat; first compound 0.03162 µM) | relative viability (Etoposide + Vorinostat; first compound 0.1 µM) | relative viability (Etoposide + Vorinostat; first compound 0.3162 µM) | relative viability (Etoposide + Vorinostat; first compound 1 µM)
1 | NCI-H2023 | 0.4 | 0.451 | 0.223 | 0.286 | 0.119 | 0.617 | 0.646 | 0.651 | 0.444 | 0.171 | 0.597 | 0.615 | 0.543 | 0.388 | 0.138 | 0.442 | 0.626 | 0.335 | 0.176 | 0.0989
2 | NCI-H2347 | 0.365 | 0.338 | 0.325 | 0.358 | 0.32 | 1.23 | 1.08 | 0.592 | 0.523 | 0.408 | 1.11 | 0.99 | 0.615 | 0.455 | 0.406 | 0.412 | 0.646 | 0.475 | 0.382 | 0.432
3 | NCI-H1944 | 0.417 | 0.52 | 0.344 | 0.294 | 0.205 | 1.45 | 1.33 | 0.844 | 0.733 | 0.392 | 0.742 | 0.969 | 0.645 | 0.564 | 0.249 | 0.532 | 0.532 | 0.334 | 0.282 | 0.147
4 | NCI-H1793 | 0.243 | 0.325 |  | 0.246 | 0.209 | 0.692 | 0.989 |  | 0.716 | 0.429 | 0.563 | 0.78 |  | 0.718 | 0.341 |  | 0.934 | 0.353 | 0.427 | 0.151
5 | NCI-H596 | 0.695 | 0.831 | 0.467 | 0.56 | 0.546 | 0.86 | 1.13 |  | 0.948 | 0.884 | 0.383 | 0.491 |  | 0.457 | 0.425 | 0.52 | 0.672 | 0.449 | 0.591 | 0.323
6 | NCI-H520 | 0.253 | 0.209 | 0.204 | 0.292 | 0.286 | 0.927 | 1.04 | 1.1 | 0.895 | 0.9 | 0.873 | 0.925 | 0.965 | 0.836 | 0.906 | 0.777 | 0.776 | 0.878 | 0.591 | 0.461
7 | EKVX | 0.694 | 0.651 | 0.429 | 0.617 | 0.364 | 0.979 | 0.978 | 0.805 | 0.712 | 0.399 | 0.693 | 0.974 | 0.584 | 0.693 | 0.343 | 0.543 | 0.746 | 0.512 | 0.444 | 0.253

From the supplement of paper PMC10307832
